Starred links: 1 amine or outer side, 2 acyl side, 3 side chain; linkers in the order of their positions; H or OH if unused. Positions of bridges follow the written chain, without caps; N, C: chain ends. Residues, ends and D or L forms follow the SMILES beside them. Chains are numbered I, II in the order given. X1 = O=C(c1ccc(Oc2nc(NCCN[*:2])nc(NCCN[*:3])n2)cc1)[*:1]
Experiments:
E. coli 208691 = test: Intracellular accumulation of acridine orange; assay type: cell-based; details: E. coli 208691, dendrimers at MIC, ½ MIC, ¼ MIC, AO 0.25 µg/mL, 30 min
Protocol: (§1) The assay was performed as previously described by Armengol et al. including control and clinical strains (E. coli 208691 and P. aeruginosa 666 SJD) previously studied by our group. Briefly, 96-well flat-bottomed microtiter plates (Guangzhou Jet Bio-Filtration Co., Ltd., Mianyang, China) were used. Overnight cultures were diluted in 1/4 Ringer’s solution to an OD520nm of 1.5, and 100 µL was added to the wells previously filled with 100 µL of Ringer’s solution. Acridine Orange (AO) was added to a final concentration of 0.25 µg/mL. The inoculated plates were then incubated for 30 min with shaking, after which the fluorescence was measured in a FLUOstar OPTIMA fluorescence microplate reader (BMG Labtech, Ortenberg, Germany).
(§2) To determine the uptake and accumulation of AO by bacteria, different scenarios were compared. First, bacteria were examined in the presence of PAβN at 20 µg/mL, and then in the presence of different concentrations of the dendrimers at (MIC, ½ MIC, ¼ MIC). The results in each condition were expressed as the percentage increase in fluorescence with respect to the control.

P. aeruginosa ATCC 27853 = test: Intracellular accumulation of acridine orange; assay type: cell-based; details: P. aeruginosa ATCC 27853, dendrimers at MIC
Protocol: as §1, §2

## CC(C)C[C@H](NC(=O)c1ccc(Oc2nc(NCCNC(=O)[C@H](CCCCN)NC(=O)[C@H](CC(C)C)NC(=O)[C@H](CCCCN)NC(=O)[C@H](CC(C)C)NC(=O)[C@H](CCCCN)NC(=O)[C@@H](N)CC(C)C)nc(NCCNC(=O)[C@H](CCCCN)NC(=O)[C@H](CC(C)C)NC(=O)[C@H](CCCCN)NC(=O)[C@H](CC(C)C)NC(=O)[C@H](CCCCN)NC(=O)[C@@H](N)CC(C)C)n2)cc1)C(=O)N[C@@H](CCCCN)C(=O)N[C@@H](CC(C)C)C(=O)N[C@@H](CCCCN)C(=O)N[C@@H](CC(C)C)C(=O)N[C@@H](CCCCN)C(N)=O [Dendrimer 1, H-[(LK)3]2-(EDA)2-TA-PHBA-(LK)3-NH2] (I: LKLKLK-NH2 / II: H-LKLKLK / III: H-LKLKLK; linker I:N-II:C-III:C via X1)
E. coli 208691
  AO accumulation (in words): marked increase in AO accumulation
P. aeruginosa ATCC 27853
  AO accumulation (in words): slight increase in AO accumulation

Reference: article PMC11172478, “1,3,5-Triazine as Branching Connector for the Construction of Novel Antimicrobial Peptide Dendrimers: Synthesis and Biological Characterization” (International Journal of Molecular Sciences, 2024)
